Results as given in ChEMBL document CHEMBL1201862, “PubChem BioAssay data set” (2004).
Active and inactive are the calls of the source.

Tests used:
[1] = biological target: T1, Mannose-6-phosphate isomerase (Homo sapiens, UniProt P34949); experiment: Confirmation of compounds inhibiting phosphomannose isomerase (PMI) via a fluorescence intensity assay using a high concentration of mannose 6-phosphate. [Related pubchem assays (depositor defined):AID1209, AID1220, AID1545, AID1553, AID1620]
T1 sequence (P34949 whole entry): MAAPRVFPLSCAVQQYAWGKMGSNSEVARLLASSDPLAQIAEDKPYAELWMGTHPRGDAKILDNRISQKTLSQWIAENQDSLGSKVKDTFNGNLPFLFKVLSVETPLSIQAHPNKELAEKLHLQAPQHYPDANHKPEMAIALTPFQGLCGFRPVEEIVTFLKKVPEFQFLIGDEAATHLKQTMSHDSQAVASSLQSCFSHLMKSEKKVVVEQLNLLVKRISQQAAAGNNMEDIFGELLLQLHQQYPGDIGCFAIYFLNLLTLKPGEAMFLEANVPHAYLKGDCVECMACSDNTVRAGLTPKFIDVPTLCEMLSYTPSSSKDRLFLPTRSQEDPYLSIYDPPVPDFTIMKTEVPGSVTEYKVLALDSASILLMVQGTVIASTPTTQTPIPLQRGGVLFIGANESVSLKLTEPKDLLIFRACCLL

Phosphomannomutase 2 = biological target: T2, Phosphomannomutase 2 (Homo sapiens, UniProt O15305); experiment: Counter screen SAR assay for PMM2 inhibitors via a fluorescence intensity assay. [Related pubchem assays (depositor defined):AID1545, AID1574]
T2 sequence (O15305 whole entry): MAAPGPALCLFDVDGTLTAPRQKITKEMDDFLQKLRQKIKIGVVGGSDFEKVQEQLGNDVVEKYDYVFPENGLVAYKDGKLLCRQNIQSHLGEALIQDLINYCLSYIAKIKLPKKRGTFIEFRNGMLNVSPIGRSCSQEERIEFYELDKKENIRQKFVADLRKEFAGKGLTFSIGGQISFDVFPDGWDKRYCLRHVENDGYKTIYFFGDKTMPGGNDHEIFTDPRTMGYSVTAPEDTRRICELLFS

[2] = biological target: Phosphoethanolamine/phosphocholine phosphatase (Homo sapiens, UniProt Q8TCT1); experiment: SAR assay for compounds that inhibit PHOSPHO1. [Related pubchem assays (depositor defined):AID1545, AID1565, AID1574]
Sequence of Phosphoethanolamine/phosphocholine phosphatase (Q8TCT1 whole entry): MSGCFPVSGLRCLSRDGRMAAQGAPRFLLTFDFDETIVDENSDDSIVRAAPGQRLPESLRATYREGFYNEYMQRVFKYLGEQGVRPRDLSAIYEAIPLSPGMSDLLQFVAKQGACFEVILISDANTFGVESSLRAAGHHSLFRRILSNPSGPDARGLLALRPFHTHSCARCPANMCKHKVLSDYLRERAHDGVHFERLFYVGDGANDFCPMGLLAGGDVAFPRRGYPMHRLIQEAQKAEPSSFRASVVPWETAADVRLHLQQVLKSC

[3] = biological target: T1, Mannose-6-phosphate isomerase; experiment: phosphomannose isomerase inhibition – biochemical, fluorescence intensity, confirmation (AID 1535)
[4] = biological target: T3, Alkaline phosphatase, tissue-nonspecific isozyme (Homo sapiens, UniProt P05186); experiment: potency against alkaline phosphatase TNAP – biochemical, luminescent, dose response, SAR follow-up (AID 1056)
T3 sequence (P05186 whole entry): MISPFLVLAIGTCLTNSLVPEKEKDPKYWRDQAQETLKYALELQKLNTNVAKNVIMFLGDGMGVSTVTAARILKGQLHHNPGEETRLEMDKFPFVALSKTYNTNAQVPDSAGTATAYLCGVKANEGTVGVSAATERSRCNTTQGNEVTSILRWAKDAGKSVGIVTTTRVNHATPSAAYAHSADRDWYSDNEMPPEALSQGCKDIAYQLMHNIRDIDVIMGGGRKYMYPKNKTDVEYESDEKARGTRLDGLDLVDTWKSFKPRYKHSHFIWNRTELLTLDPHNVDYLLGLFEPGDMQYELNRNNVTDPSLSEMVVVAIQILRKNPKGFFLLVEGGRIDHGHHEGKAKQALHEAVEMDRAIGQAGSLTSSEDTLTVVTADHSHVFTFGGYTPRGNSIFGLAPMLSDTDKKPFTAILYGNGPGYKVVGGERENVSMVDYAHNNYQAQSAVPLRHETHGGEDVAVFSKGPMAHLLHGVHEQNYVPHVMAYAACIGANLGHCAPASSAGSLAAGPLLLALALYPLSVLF

[5] = biological target: T3, Alkaline phosphatase, tissue-nonspecific isozyme; experiment: SAR assay for compounds inhibiting TNAP in the absence of phosphate acceptor performed in a luminescent assay. [Related pubchem assays (depositor defined):AID1548, AID1659, AID518]
[6] = biological target: Glyceraldehyde-3-phosphate dehydrogenase (Homo sapiens, UniProt P04406)
Sequence of Glyceraldehyde-3-phosphate dehydrogenase (P04406 whole entry): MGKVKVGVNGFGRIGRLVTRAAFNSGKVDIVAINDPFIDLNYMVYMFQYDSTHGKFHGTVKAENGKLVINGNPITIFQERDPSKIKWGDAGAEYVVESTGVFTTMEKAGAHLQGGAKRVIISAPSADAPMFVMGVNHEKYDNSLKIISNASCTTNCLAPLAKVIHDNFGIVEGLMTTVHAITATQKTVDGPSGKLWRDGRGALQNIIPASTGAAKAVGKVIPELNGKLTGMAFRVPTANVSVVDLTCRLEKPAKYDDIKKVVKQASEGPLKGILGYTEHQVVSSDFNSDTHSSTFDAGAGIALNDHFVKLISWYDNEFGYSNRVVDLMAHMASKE

[7] = HEK-293T viability loss after treatment – luminescence, T-cell screen hits, cytotoxicity control for TCR NF-kB inhibitor project, dose response (AID 489026); type: functional, cell-based;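 also: cells exposed to compound about 14 hours before the viability readout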
J774.A1 = experiment: Confirmation of image-based Screening Assay for Inhibitors of Phagocytosis. [Related pubchem assays (depositor defined):AID1029, AID1643]; type: functional, cell-based; settings: Mus musculus
[8] = biological target: G-protein coupled receptor 35 (Homo sapiens, UniProt Q9HC97); experiment: inhibition of zaprinast-stimulated GPR35 beta-arrestin translocation – imaging, U2OS, beta-arrestin-GFP, zaprinast agonist, primary screen (AID 2058); type: functional;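 also: antagonist potency meaning inhibition of agonist-induced arrestin redistribution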
Sequence of G-protein coupled receptor 35 (Q9HC97 whole entry): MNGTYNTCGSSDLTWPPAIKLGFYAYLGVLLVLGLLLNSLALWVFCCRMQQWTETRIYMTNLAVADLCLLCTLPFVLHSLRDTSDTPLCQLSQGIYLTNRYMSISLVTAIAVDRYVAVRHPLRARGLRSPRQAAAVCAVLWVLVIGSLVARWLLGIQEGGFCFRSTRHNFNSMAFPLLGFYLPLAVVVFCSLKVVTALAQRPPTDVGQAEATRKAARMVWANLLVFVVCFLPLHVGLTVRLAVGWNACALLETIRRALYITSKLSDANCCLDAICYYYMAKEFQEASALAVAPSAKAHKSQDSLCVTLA

[9] = fluconazole-exposed Candida albicans growth modulators – fluorescence, retest, confirmation (AID 2467); type: functional, cell-based
BJ [10] = experiment: cells; type: functional, cell-based; settings: Homo sapiens
BJ [11] = experiment: BJ-TERT-LT-ST fibroblast viability loss – cell-based, RAS-independent, luminescence, dose response (AID 1935); type: functional; settings: Homo sapiens;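 also: BJ fibroblasts immortalized with TERT plus LT and ST oncogenes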
[12] = alpha-synuclein stem-loop luciferase translation blockers – H4 neuroglioma cells, luminescence, confirmation (AID 1988); type: functional, cell-based
[13] = NIH-3T3 fibroblast cytotoxicity, dose response, cytotoxicity control, cell-based, fluorescence, Alamar Blue, secondary assay (AID 2327); type: functional;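 also: NIH-3T3 mouse fibroblasts cultured with fluconazole at 8 µg/mL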
INS1 = experiment: INS-1E survival protection against cytokine death – cell-based, luminescence, retest, dose response (AID 449756); type: functional; settings: Rattus norvegicus, INS1;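 also: cell death triggered by IL-1 beta plus TNF-alpha plus IFN-gamma mixture; protective hits raise ATP signal compared with cytokine alone wells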
[14] = Luminescence Cell-Based Dose Response HTS to Identify Inhibitors of 5'UTR Stem-Loop Driven Prion Protein mRNA Translation in H4 Neuroglioblastoma Cells. [Related pubchem assays: 1827 (Project Summary), 1813 (Primary HTS)]; type: functional
[15] = biological target: Mitochondrial peptide methionine sulfoxide reductase (Bos taurus, UniProt P54149); experiment: Absorbance-based biochemical high throughput dose response assay for activators of Methionine sulfoxide reductase A (MsrA).; type: functional
Sequence of Mitochondrial peptide methionine sulfoxide reductase (P54149 whole entry): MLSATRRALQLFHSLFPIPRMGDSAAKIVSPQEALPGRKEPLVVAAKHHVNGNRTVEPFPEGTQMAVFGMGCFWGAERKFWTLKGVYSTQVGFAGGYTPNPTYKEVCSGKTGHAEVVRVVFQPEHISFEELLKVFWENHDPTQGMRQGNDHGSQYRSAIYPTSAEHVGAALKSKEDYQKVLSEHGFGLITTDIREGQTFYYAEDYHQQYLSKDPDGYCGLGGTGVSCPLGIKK

BJ [16] = experiment: BJ-TERT fibroblast viability loss – cell-based, RAS-independent, luminescence, dose response (AID 1933); type: functional; settings: Homo sapiens
[17] = microbe, parasite or virus in culture; type: functional; settings: Mycobacterium tuberculosis
[18] = biological target: NACHT, LRR and PYD domains-containing protein 3 (Homo sapiens, UniProt Q96P20); experiment: NALP3 inhibitors in yeast, dose response, luminescent (AID 488799); type: functional
Sequence of NACHT, LRR and PYD domains-containing protein 3 (Q96P20 whole entry, the tested form may be a part): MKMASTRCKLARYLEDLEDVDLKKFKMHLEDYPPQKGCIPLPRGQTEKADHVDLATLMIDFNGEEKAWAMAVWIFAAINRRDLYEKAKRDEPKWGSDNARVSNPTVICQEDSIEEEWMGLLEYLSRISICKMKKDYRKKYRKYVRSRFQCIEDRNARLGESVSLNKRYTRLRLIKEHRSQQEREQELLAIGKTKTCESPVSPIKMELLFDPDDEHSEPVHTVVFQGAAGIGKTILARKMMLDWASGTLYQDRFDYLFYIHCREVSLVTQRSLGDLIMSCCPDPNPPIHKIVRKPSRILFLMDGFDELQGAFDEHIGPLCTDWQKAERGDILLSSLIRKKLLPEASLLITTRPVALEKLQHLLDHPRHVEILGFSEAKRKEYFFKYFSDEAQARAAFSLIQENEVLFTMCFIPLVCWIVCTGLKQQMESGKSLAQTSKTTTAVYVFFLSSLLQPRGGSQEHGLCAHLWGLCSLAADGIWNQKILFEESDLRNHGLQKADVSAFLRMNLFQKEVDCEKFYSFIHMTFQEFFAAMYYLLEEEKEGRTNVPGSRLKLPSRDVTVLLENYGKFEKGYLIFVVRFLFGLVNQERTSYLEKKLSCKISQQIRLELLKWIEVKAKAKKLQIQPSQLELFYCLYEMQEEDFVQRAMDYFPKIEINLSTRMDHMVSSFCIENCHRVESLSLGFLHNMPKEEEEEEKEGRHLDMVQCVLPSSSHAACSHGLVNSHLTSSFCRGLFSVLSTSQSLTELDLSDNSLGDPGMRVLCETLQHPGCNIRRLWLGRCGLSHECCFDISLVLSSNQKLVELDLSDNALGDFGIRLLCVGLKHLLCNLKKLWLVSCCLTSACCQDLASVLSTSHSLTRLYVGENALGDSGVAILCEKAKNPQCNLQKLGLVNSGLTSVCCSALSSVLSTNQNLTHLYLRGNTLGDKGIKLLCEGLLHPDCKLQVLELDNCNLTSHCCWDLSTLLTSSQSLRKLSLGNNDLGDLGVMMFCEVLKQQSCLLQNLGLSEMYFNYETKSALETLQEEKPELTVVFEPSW

[19] = DRD fibroblast viability loss – cell-based, non-viral oncogenic, luminescence, dose response (AID 1934); type: functional; settings: Homo sapiens
[20] = luciferase reporter signal suppression in cells – H4 neuroglioma cells, luminescence, dose response (AID 1990); type: functional, cell-based

For `Cc1ccc(C)c(-n2sc3ccccc3c2=O)c1`, the IC50 [1] was 5.51 µM (active), the IC50 (Phosphomannomutase 2) was 17.9 µM (active) and the IC50 [2] was 5.04 µM (inactive). For the same molecule, the IC50 [3] was 1.67 µM (active) and the IC50 [4] was > 100 µM (inactive).

With `O=C(NCCO)c1cc(-c2ccc(Cl)c(Cl)c2Cl)n[nH]1` the IC50 [5] was 0.00422 µM (active), the IC50 [4] was 0.00744 µM (active) and the IC50 [6] was > 10 µM (inconclusive).

In the case of `CCN(CC)c1ccc(NC(=O)c2cc(OC)cc(OC)c2)c(C)c1`, the IC50 [7] is reported as > 80 µM (inactive) and the IC50 (J774.A1) is reported as 0.13 µM (active).

In the case of `COc1ccc(/C=C\C(=O)NCC(=O)N/N=C/c2ccc(O)cc2O)cc1`, the IC50 [8] is reported as 1.16 µM (active).

For `CCN(CC)c1ccc2nc3ccccc3[n+](CC)c2c1`, the EC50 [9] was 0.686 µM (active), the IC50 [7] was 48.8 µM (inactive) and the EC50 (BJ [10]) was 23.6 µM (active). For the same molecule, the EC50 (BJ [11]) was > 150 µM (inconclusive), the EC50 [12] was 9.49 µM (active) and the EC50 [13] was 96.1 µM (active). The AC50 (INS1) was 0.602 µM (active), the EC50 [14] was 25.9 µM (active) and the EC50 [15] was 19.2 µM (inactive). The EC50 (BJ [16]) was 16.9 µM (active), the CC50 [17] was > 40 µM (active) and the IC50 [18] was 14.3 µM (active). The EC50 [19] was 15.2 µM (active) and the EC50 [20] was 11.2 µM (active).
